Laboratory results as given in PubChem BioAssay AID2060600 (Molecular Pharmacology Branch, DTP, NCI, 2025).
Values joined by “and” are separate entries in the source; they are usually repeats but may differ in a detail not shown here. Equal values may be shown once.

Tested on: 996289-038-R-J1-PDC complex spheroid viability
Experiment: Anticancer human tumor 996289-038-R-J1-PDC patient-derived colon adenocarcinoma cell line growth inhibition [CLK]
Conditions: for viability, T/C: stronger effect = lower value
Text: A high-throughput screen of multi-cell type tumor spheroids was designed to identify active combinations of […] and targeted small molecules. Complex spheroids include a stromal component modeled by human endothelial cells (HUVEC) and fibroblasts modeled by human mesenchymal stem cells (MSCs). The concentration ranges selected for each drug and investigational agent were based upon clinically achievable concentrations if the clinical Cmax of the agent was known.
Compounds. The drugs and investigational agents: cirtuvivint (SM08502; NSC835563), CC-671 (NSC850746), vemurafenib (NSC761431), tapotoclax (NSC804041), sotorasib (NSC818433), adagrasib (NSC831453), MRTX-1133 (NSC836407), BAY2416964 (NSC825713), copanlisib (NSC816437), inavolisib (NSC800729), abemaciclib (NSC768073), osimertinib (NSC779217), entinostat (NSC756642), eltanexor (KPT-8602, NSC794443), venetoclax (NSC766270), ceralasertib (NSC777638), bortezomib (NSC756655), olaparib (NSC753686), talazoparib (NSC767125), alisertib (NSC759677), peposertib (NSC802822), gemcitabine (NSC613327), 5-fluorouracil (NSC19893), SN-38 (NSC673596), oxaliplatin (NSC266046), paclitaxel (NSC125973), and doxorubicin (NSC123127), were obtained from the National Cancer Institute (NCI) Developmental Therapeutics Program Chemical Repository. The FDA-approved anticancer drug set is available from the Developmental Therapeutics Program at https://dtp.cancer.gov/organization/dscb/obtaining/available plates.htm. […] The stock solutions were prepared in dimethyl sulfoxide (DMSO, Sigma-Aldrich, St. Louis, MO, cat. D2650), except for the platinum complexes which were prepared in saline (Quality Biological, Gaithersburg, MD, cat. 114-055-101), at 800-fold the tested concentration and stored at -70 degrees C prior to their use. All drugs and investigational agents were tested over a range starting from a high concentration at or near the clinical Cmax and decreasing in half-log increments. If the clinical Cmax for an agent had not been determined, the highest concentration tested was 10 microM.
Cell Culture. All cells were maintained in an incubator at 37 degrees C and 5% CO2 with 95% humidity. The PDC lines were cultured according to standard operating procedures established by the NCI PDMR. Briefly, all PDCs were thawed and cultured in Matrigel-coated flasks prepared with a working solution of 1X Ham's F-12 nutrient mix, without supplementation (Invitrogen, Waltham, MA, cat. 11765054), 100 U/mL penicillin-streptomycin (Invitrogen, cat. 15140122), and 2.5% Matrigel (Corning Inc., Corning, NY, cat. 354248) for the first three passages. The 947758-054-R-J2-PDC line was cultured in 6B/Colon 1A media, which includes advanced DMEM/F-12 (Thermo Fisher Scientific, cat. 12634028), 10 mM HEPES (Thermo Fisher Scientific, cat. 15630080), 1X GlutaMAX supplement (Thermo Fisher Scientific, cat. 35050061), 0.1 mg/mL primocin (InvivoGen, cat. ant-pm-2), 10% defined fetal bovine serum, heat inactivated (HyClone Laboratories Inc., cat. SH30070.03HI), 1.25 mM N-Acetyl-L-cysteine (Sigma-Aldrich, cat. A9165), 10 mM nicotinamide (Sigma-Aldrich, cat. N0636), 1X B-27 supplement (Thermo Fisher Scientific, cat. 17504044), 1X N-2 supplement (Thermo Fisher Scientific, cat. 17502048), and 10 microM Y-27632 dihydrochloride (Tocris Bioscience, cat. 1254). The 876862-298-R-J1-PDC was cultured in 6E media, which includes all 6B/Colon 1A media components plus 50% L-WRN conditioned media (ATCC, cat. CRL-3276), 50 ng/mL recombinant human EGF recombinant protein (hEGF; Thermo Fisher Scientific, cat. PHG0311), 10 ng/mL recombinant human fibroblast growth factor 10 (hGFG-10; PeproTech, cat. 100-26), 1 ng/mL recombinant human fibroblast growth factor 2 (hFGF-2; PeproTech, cat. 100-18B), and 1 µM prostaglandin E2 (PGE2; Tocris, cat. 2296). The 227483-062-R1-J1-PDC line was cultured in Panc media, containing all 6E components except hFGF-2, with the addition of 500 nM SB-431542 (Selleckchem, cat. S1067) and 10 nM gastrin (Tocris, cat. 3006). […]
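Also: spheroids exposed to the agents for 7 days before readout.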

| IC50 (curve of compound) | SMILES | viability, T/C (compound 0.0316 µM) | viability, T/C (compound 0.1 µM) | viability, T/C (compound 0.316 µM) | viability, T/C (compound 1 µM) | viability, T/C (compound 3.16 µM) | viability, T/C (compound 10 µM) | further results |
| --- | --- | --- | --- | --- | --- | --- | --- | --- |
| 1.58 µM and 1 µM | C#Cc1c(F)ccc2cc(O)cc(-c3ncc4c(N5CC6CCC(C5)N6)nc(OCC56CCCN5CC(F)C6)nc4c3F)c12 (centres undefined) | 95.8% and 98.9% | 80.1% and 91.3% | 65.1% and 73.6% | 59.3% and 49.8% | 41.1% and 37.4% | 30.7% and 33.3% | – |
| 4.83 µM and 4.71 µM | C=C(F)C(=O)N1CCN(c2nc(OCC3CCCN3C)nc3c2CCN(c2cccc4cccc(Cl)c24)C3)CC1CC#N (centres undefined) | 100% and 113% | 91.7% and 107% | 100% and 101% | 108% and 101% | 78.5% and 76% | 1.09% and 1.7% | – |
| > 10 µM | C=CC(=O)N1CCN(c2nc(=O)n(-c3c(C)ccnc3C(C)C)c3nc(-c4c(O)cccc4F)c(F)cc23)C(C)C1 (centres undefined) | 97.5% and 115% | 85.3% and 98% | 109% and 101% | 112% and 114% | 124% and 117% | 103% and 116% | – |
| > 0.3 µM | C=CC(=O)Nc1cc(Nc2nccc(-c3cn(C)c4ccccc34)n2)c(OC)cc1N(C)CCN(C)C | – | – | – | – | – | – | viability, T/C (compound 0.000949 µM): 99.1% and 105%; viability, T/C (compound 0.003 µM): 106% and 96.1%; viability, T/C (compound 0.00949 µM): 101% and 98.5%; viability, T/C (compound 0.03 µM): 92.6% and 93.1%; viability, T/C (compound 0.0949 µM): 93% and 92%; viability, T/C (compound 0.3 µM): 81.2% and 69.9% |
| 0.00484 µM and 0.0035 µM | CC(C)CC(NC(=O)C(Cc1ccccc1)NC(=O)c1cnccn1)B(O)O (centres undefined) | – | – | – | – | – | – | viability, T/C (compound 0.000949 µM): 98.5% and 113%; viability, T/C (compound 0.003 µM): 78.9% and 56.8%; viability, T/C (compound 0.00949 µM): 9.23% and 6.16%; viability, T/C (compound 0.03 µM): 0.73% and 1.24%; viability, T/C (compound 0.0949 µM): 0.59% and 0.71%; viability, T/C (compound 0.3 µM): 0.55% and 1.04% |
| > 10 µM | CC(CO)NC(=O)c1cc(-c2ccc(Cl)cc2)nn(-c2cnn(C)c2)c1=O (centres undefined) | 104% and 103% | 99.9% and 95.8% | 94.6% and 96.1% | 92.1% and 100% | 103% and 92.2% | 88.4% and 88.7% | – |
| 6.04 µM and 4.5 µM | CC(Nc1ccc2c(c1)OCCn1cc(N3C(=O)OCC3C(F)F)nc1-2)C(N)=O (centres undefined) | 97.5% and 100% | 78.5% and 75.5% | 72.1% and 74.9% | 63.5% and 60.5% | 54.1% and 53.5% | 46.5% and 44.3% | – |
| 8.2 µM and 9.04 µM | CC1(C)CCC(CN2CCN(c3ccc(C(=O)NS(=O)(=O)c4ccc(NCC5CCOCC5)c([N+](=O)[O-])c4)c(Oc4cnc5[nH]ccc5c4)c3)CC2)=C(c2ccc(Cl)cc2)C1 | 108% and 106% | 94.2% and 83.6% | 101% and 109% | 109% and 100% | 118% and 121% | 38.2% and 44.7% | – |
| > 10 µM | CC1COCCN1c1cc(C2(S(C)(=N)=O)CC2)nc(-c2ccnc3[nH]ccc23)n1 (centres undefined) | 103% and 102% | 97.6% and 89.7% | 96.9% and 106% | 97.9% and 102% | 97.8% and 101% | 84.4% and 81.6% | – |
| > 10 µM | CCCS(=O)(=O)Nc1ccc(F)c(C(=O)c2c[nH]c3ncc(-c4ccc(Cl)cc4)cc23)c1F | 95.8% and 104% | 87.2% and 87.3% | 94.7% and 101% | 103% and 110% | 94.8% and 101% | 77.8% and 67.8% | – |
| > 1 µM | CCN1CCN(Cc2ccc(Nc3ncc(F)c(-c4cc(F)c5nc(C)n(C(C)C)c5c4)n3)nc2)CC1 | 92.3% and 99.6% | 91.2% and 96.8% | 86.5% and 94.9% | 86.9% and 95% | – | – | viability, T/C (compound 0.00316 µM): 93.4% and 99.5%; viability, T/C (compound 0.01 µM): 98.7% and 84% |
| 0.135 µM and 0.165 µM | CCc1c2c(nc3ccc(O)cc13)-c1cc3c(c(=O)n1C2)COC(=O)[C@]3(O)CC | 60.8% and 61.9% | 55.7% and 58.6% | 45.8% and 50.8% | 25.7% and 30.8% | – | – | viability, T/C (compound 0.00316 µM): 98.9% and 99.3%; viability, T/C (compound 0.01 µM): 81.9% and 72.3% |
| – | CN1CCN(c2cc(C(=O)Nc3cc4cc(-c5cnn(C)c5)ccc4cn3)ccn2)CC1 | 102% [middle of 12 runs] | 95.1% [middle of 12 runs] | 71.7% [middle of 12 runs] | 4.43% [middle of 11 runs] | 1.12% [middle of 11 runs] | 0.43% [middle of 9 runs] | IC50 (compound alone, run of 08/14/2023): 461 nM [middle of 10 runs] |
| – | CNC(=O)c1ccc(Nc2nc(OC3CCCC3)c3c(-c4ccc5nc(C)oc5c4)c[nH]c3n2)c(OC)c1 | 120% [middle of 12 runs] | 119% [middle of 12 runs] | 78.9% [middle of 12 runs] | 62.1% [middle of 12 runs] | 61.1% [middle of 12 runs] | 63.1% [middle of 12 runs] | IC50 (compound alone, run of 08/15/2023): > 10 µM and 8.19 µM |
| 5.36 µM and 5.44 µM | COC1C=CCC(C)C(C)S(=O)(=O)NC(=O)c2ccc3c(c2)N(CC2CCC21)CC1(CCCc2cc(Cl)ccc21)CO3 (centres undefined) | 101% and 104% | 88.7% and 93.9% | 93.5% and 97.9% | 78.9% and 89.3% | 64.2% and 59.8% | 33.9% and 39% | – |
| 0.0836 µM and 0.0645 µM | COc1c(OCCCN2CCOCC2)ccc2c3n(c(=NC(=O)c4cnc(N)nc4)nc12)CCN3 | 66.9% and 64.2% | 45.9% and 46.1% | 31.9% and 30.1% | 20.4% and 22.4% | – | – | viability, T/C (compound 0.00316 µM): 87.7% and 97.2%; viability, T/C (compound 0.01 µM): 75.6% and 64.2% |
| > 0.1 µM | Cn1ncnc1[C@H]1c2n[nH]c(=O)c3cc(F)cc(c23)N[C@@H]1c1ccc(F)cc1 | 99% and 117% | 85.3% and 95.5% | – | – | – | – | viability, T/C (compound 0.000316 µM): 98% and 109%; viability, T/C (compound 0.001 µM): 90.6% and 97.8%; viability, T/C (compound 0.00316 µM): 107% and 108%; viability, T/C (compound 0.01 µM): 103% and 105% |
| 0.0744 µM and 0.0789 µM | NC(=O)C(=Cn1cnc(-c2cc(C(F)(F)F)cc(C(F)(F)F)c2)n1)c1cncnc1 | – | – | – | – | – | – | viability, T/C (compound 0.00949 µM): 83% and 87.8%; viability, T/C (compound 0.03 µM): 63% and 63.2%; viability, T/C (compound 0.0949 µM): 49.2% and 52.4%; viability, T/C (compound 0.3 µM): 28.8% and 28.9%; viability, T/C (compound 0.949 µM): 19.9% and 22.7%; viability, T/C (compound 3 µM): 18.5% and 21.2% |
| 6.4 µM and 7.34 µM | Nc1ccccc1NC(=O)c1ccc(CNC(=O)OCc2cccnc2)cc1 | 88.5% and 105% | 89.2% and 81.2% | 91.8% and 98.1% | 87.1% and 85% | 61.8% and 65.7% | 42.5% and 44.2% | – |
| > 10 µM | Nc1ccn(C2OC(CO)C(O)C2(F)F)c(=O)n1 (centres undefined) | 82% and 89.3% | 62.9% and 70.5% | 62.4% and 68.2% | 55.8% and 65.7% | 54.8% and 69.3% | 47% and 59% | – |
| > 10 µM | O=C(c1cc(Cc2n[nH]c(=O)c3ccccc23)ccc1F)N1CCN(C(=O)C2CC2)CC1 | 99.9% and 109% | 98.6% and 86.6% | 103% and 108% | 99.1% and 105% | 105% and 113% | 93.9% and 104% | – |
| > 10 µM | O=c1[nH]cc(F)c(=O)[nH]1 | 99.2% and 101% | 83.9% and 82.2% | 83.3% and 88.9% | 79.7% and 78.6% | 77.9% and 85.8% | 73.3% and 74.8% | – |
